Data on 3 compounds can be found in article PMC3062907 (Advanced synthesis & catalysis, 2008).

SMILES strings stand for the structures.

Series [1] relates to human colon carcinoma (HCT-116). The series is described as follows: In vivo study in mice implanted with human colon carcinoma. To be noted: mice implanted with HCT-116; 75 mg/kg, QDx7; preliminary.
The test system of series [2] is MCF-7 breast cancer cells. To be noted: read-out: inhibitory activity against MCF-7 breast cancer cells (IC50); ref xiii; cited from earlier work.
Another series has as its system Hsp90. Kind of series: Hsp90 inhibition. In kind it is biochemical. To be noted: read-out: Hsp90 inhibition (IC50); in vitro; preliminary evaluation.
For series [3] the following is noted: ref ix; cited from earlier work.
The conditions of series [4]: in vivo settings; earlier work of the authors, no reference given; cited from earlier work.
In series [5] the test system is Rb (retinoblastoma)-negative cells. To be noted: cells resistant to 17-AAG; ref x; cited from earlier work.

With `C[C@@H]1C[C@H]2C[C@@H]2/C=C\C=C\C(=O)Cc2c(Cl)c(O)cc(O)c2C(=O)O1` [cycloproparadicicol (4), cycloproparadicicol], the “tumor cell growth suppression” value in series [1] is listed as 68%. Moreover, the figures for the IC50 (in series [2]; in the series on Hsp90) were 49 nM and 160 nM, respectively.

As for `C[C@@H]1C[C@H]2O[C@@H]2/C=C\C=C\C(=O)Cc2c(Cl)c(O)cc(O)c2C(=O)O1` [Radicicol (1), radicicol], the “hepatotoxicity compared with 17-AAG” value in series [3] is “significantly less hepatotoxic than 17-AAG (3)”. The in vivo activity entry in series [4] was “inactive”. In addition, the “cytotoxicity against Rb-negative cells” value in series [5] was “potent cytotoxicity”.

Regarding `C=CCNC1=C2C[C@@H](C)C[C@H](OC)[C@H](O)[C@@H](C)/C=C(\C)[C@H](OC(N)=O)[C@@H](OC)/C=C\C=C(/C)C(=O)NC(=CC1=O)C2=O` [17-AAG (3), 17-AAG], the IC50 (in general, the concentration that inhibits the measured activity by half) in the series with Hsp90 is […].
